Measured values: publication PMC10531311, “Anti-Inflammatory Activities of 8-Benzylaminoxanthines Showing High Adenosine A2A and Dual A1/A2A Receptor Affinity” (International Journal of Molecular Sciences, 2023)
Entries after “also recorded” stand apart in the source; their conditions may differ.

System: BV-2 cells
Experiment: Phagocytic activity, IncuCyte pHrodo
Type: cell-based
Conditions: 1 µM; BV-2, LPS 1 μg/mL; apoptotic Jurkat target cells
Experimental: For the evaluation of phagocytic activity, compound 22 (MZ1490) was chosen as the most promising one on the basis of the results from the Griess assay. This compound was tested at a concentration of 1 µM, and phagocytosis was monitored in real time using an IncuCyte® pHrodo® Red Cell Labeling Kit (catalog no. 4766, Sartorius, Göttingen, Germany). […] It is interesting to note that the phagocytic activity exerted by untreated BV-2 cells is also related to the serum concentration. A healthy CNS maintains the BBB, and microglia are often highly ramified surveillance microglia without enhanced phagocytosis. […]
Phagocytosis was monitored in real time using the IncuCyte® pHrodo® Red Cell Labeling Kit. The principle of this test is based on the ability of the pHrodo to emit fluorescence in an acidic environment, which is precisely the environment inside the phagosome. If effector cells engulf labeled target cells and these enter the acidic phagosome, a substantial increase in fluorescence is observed. In this way, we can quantify phagocytosis. […] After this time, the labeled Jurkat apoptotic cells were added to the BV-2 cells at a density of 100,000 cells/well and the cells were monitored in an IncuCyte Live-Cell Analysis System. Repeat scanning to record phase and fluorescence images was carried out every 1 h, for up to 22 h. […]

With `C#CCn1c(=O)c2c(nc(NCc3c(F)cccc3Cl)n2C)n(C)c1=O` [compound 22, 8-((2-Chloro-6-fluorobenzyl)amino)-3,7-dimethyl-1-(prop-2-yn-1-yl)-3,7-dihydro-1H-purine-2,6-dione] as the compound, how does the “effect on phagocytosis (in words)” value read?
The value was “protects microglia from LPS-induced inflammation and, therefore, also from phagocytosis; also recorded: protected from phagocytosis”.
